# Experimental data from patent US20140066365A1, “USE OF CALIXARENES ASSOCIATED WITH AN ANTIBIOTIC IN THE TREATMENT OF BACTERIAL INFECTIONS” (priority 2011, published 2014).
# Where two headings read alike, the source gives them in different places.
# What was measured:
# [1] = test system: Pseudomonas aeruginosa strain PaR2; assay: microbe, parasite or virus in culture; type: cell-based; conditions: antibiotic alone (second value of cell)
# Text: (§1) The MICs of the antibiotics were previously defined for each strain, by the method of microdilution in a liquid medium (CLSI (Clinical and Laboratory Standards Institute), 2003).
# [2] = test system: EcR1: Penicillinase-Producing Escherichia coli without Associated Resistance; assay: Antibiogram by the disk diffusion technique; type: cell-based; conditions: for MIC mg/L (diameter in mm): EcR1, cells that print a diameter, Table A2; for Diameter: EcR1, disk diffusion; for Diameter / Results: Table A1; for Results: EcR1, interpretation of the diameter against Dmin Dmax
# Experimental: (§2) 5.1 EcR1: Penicillinase-Producing Escherichia coli without Associated Resistance The bacterial and antibiogramidentification is carried out by the VITEK 2 system (bioMérieux) and by the disk diffusion technique.
# [3] = test system: EcR3: ESBL-Producing Escherichia coli; assay: Antibiogram by the disk diffusion technique; type: cell-based; conditions: for CA-SFM Interpretation: Cd CA-SFM 2011; for Diameter: Table C1; for Results: Table C1, against Dmin Dmax; for diameter in mm: Table C2
# Experimental: The bacterial and antibiogramidentification is carried out by the VITEK 2 system (bioMerieux) and by the disk diffusion technique
# [4] = test system: PaR2: Pseudomonas aeruginosa; type: cell-based; conditions: for CA-SFM Interpretation: Cd CA-SFM 2011; for CLSI Interpretation: Cd CLSI 2011; for Diameter: Table G1; for Results: Table G1, against Dmin-Dmax; for diameter in mm: Table G2
# Experimental: (§3) The bacterial and antibiogramidentification is carried out by the VITEK 2 system (bioMérieux) and by the disk diffusion technique
# [5] = test system: mucoid strain of Pseudomonas aeruginosa PaR5; assay: MIC of the compounds used alone, microdilution in a liquid medium (CLSI); type: cell-based; conditions: antibiotic alone (second value of cell)
# Text: as §1
# [6] = test system: Pseudomonas aeruginosa strain PaR3; assay: as above; type: cell-based; conditions: antibiotic alone (second value of cell)
# Text: as §1
# [7] = test system: Pseudomonas aeruginosa strain ATCC 27853 (wild type); assay: as above; type: cell-based; conditions: antibiotic alone (second value of cell), P. aeruginosa ATCC 27853
# Text: as §1
# [8] = test system: PaR3: Pseudomonas aeruginosa; assay: Antibiogram, MIC by the VITEK 2 system; type: cell-based; conditions: for CA-SFM Interpretation: Cc CA-SFM 2011; for CLSI Interpretation: Cc CLSI 2011; for EUCAST Interpretation: Cc EUCAST 2011
# Experimental: (§4) The bacterial and antibiogramidentification is carried out by the VITEK 2 system (bioMérieux)
# [9] = test system: PaR5: Pseudomonas aeruginosa; assay: Antibiogram by the disk diffusion technique; type: cell-based; conditions: for Diameter / Results: Table I1; for Results: against Dmin-Dmax; for diameter in mm: disk diffusion inhibition diameter, strain PaR5; for CA-SFM Interpretation: versus critical diameter CA-SFM 2011; for CLSI Interpretation: versus critical diameter CLSI 2011
# Experimental: as §3
# [10] = test system: Staphylococcus aureus strain ATCC 29213 (wild type); assay: MIC of the compounds used alone, microdilution in a liquid medium (CLSI); type: cell-based; conditions: Staphylococcus aureus, ATCC29213; antibiotic alone (second value of cell); S. aureus ATCC 29213; read-out: Initial MICs
# Text: as §1
# [11] = test system: Escherichia coli strain ATCC 25922 (wild type); assay: as above; type: cell-based; conditions: Escherichia coli, ATCC25922; antibiotic alone (second value of cell); E. coli ATCC 25922; read-out: Initial MICs
# Text: as §1
# [12] = test system: ESBL-producing strain of Escherichia coli, having an associated resistance to the aminoglycosides (EcR3); assay: as above; type: cell-based; conditions: Escherichia coli, antibiotic alone (second value of cell), read-out: Initial MICs
# Text: as §1
# [13] = test system: cephalosporinase-hyperproducing strain of Escherichia coli (EcR2); assay: as above; type: cell-based; conditions: Escherichia coli, antibiotic alone (second value of cell), read-out: Initial MICs
# Text: as §1
# [14] = test system: penicillinase-producing strain of Escherichia coli without associated resistance (EcR1); assay: as above; type: cell-based; conditions: Escherichia coli, antibiotic alone (second value of cell), read-out: Initial MICs
# Text: as §1
# [15] = test system: EcR1: Penicillinase-Producing Escherichia coli without Associated Resistance; assay: Antibiogram, MIC by the VITEK 2 system; type: cell-based; conditions: for MIC: Escherichia coli
# Experimental: as §2
# [16] = test system: MRSA strain without associated resistance (SaR1); assay: MIC of the compounds used alone, microdilution in a liquid medium (CLSI); type: cell-based, Staphylococcus aureus; conditions: Staphylococcus aureus, MRSA; antibiotic alone (second value of cell); SaR1; read-out: MIC
# Text: as §1
# [17] = as above; type: cell-based, Staphylococcus aureus; conditions: Staphylococcus aureus, MRSA; antibiotic alone (second value of cell); SaR4; read-out: MIC
# Text: as §1
# [18] = test system: MRSA strain having a resistance to the aminoglycosides and fluoroquinolones (SaR3); assay: as above; type: cell-based, Staphylococcus aureus; conditions: Staphylococcus aureus, MRSA; antibiotic alone (second value of cell); SaR3; read-out: MIC
# Text: as §1
# [19] = test system: EcR2: Cephalosporinase-Hyperproducing Strain of Escherichia coli; assay: Antibiogram, MIC by the VITEK 1 system; type: cell-based; conditions: Escherichia coli, read-out: MIC
# Experimental: The bacterial and antibiogramidentification is carried out by the VITEK 1 system (bioMérieux) and by the disk diffusion technique
# [20] = test system: SaR4: Meticillin-Resistant Staphylococcus aureus; assay: Antibiogram, MIC by the VITEK 2 system; type: cell-based; conditions: Staphylococcus aureus, SaR4, read-out: MIC
# Experimental: as §3
# [21] = test system: SaR1: Meticillin-Resistant Staphylococcus aureus without Associated Resistance; assay: Antibiogram, inhibition diameter (Table D1); type: cell-based
# Experimental: as §4
# [22] = test system: SaR1: Meticillin-Resistant Staphylococcus aureus without Associated Resistance; assay: Antibiogram, MIC by the VITEK 2 system; type: cell-based; conditions: SaR1
# Experimental: as §4
# [23] = test system: SaR3: Meticillin-Resistant Staphylococcus aureus; assay: Antibiogram by the disk diffusion technique; type: cell-based
# Experimental: as §3
# [24] = Pseudomonas aeruginosa, read-out: MIC
# [25] = Pseudomonas aeruginosa, ATCC27853, read-out: MIC
# [26] = Pseudomonas aeruginosa, Table H2, read-out: MIC
# [27] = EcR1, Table A2, read-out: MIC mg/L (diameter in mm)
# [28] = EcR1, VITEK 2, Table A1, read-out: MIC
compound,measurement,setting,value
Colimycin,MIC,[1],8 µg/mL
same,MIC mg/L (diameter in mm),[2],15 mm
same,CA-SFM Interpretation,"[2]; EcR1, diameter against CA-SFM 2011 limits",Susceptible
same,EUCAST Interpretation,"[2]; EcR1, diameter against EUCAST 2011 limits",Resistant
same,Diameter,[2],15 mm
same,Results,[2],Susceptible
same,CA-SFM Interpretation,[3],Susceptible
same,Diameter,[3],16 mm
same,Results,[3],Susceptible
same,diameter in mm,[3],16 mm
same,CA-SFM Interpretation,[4],Susceptible
same,CLSI Interpretation,[4],Susceptible
same,Diameter,[4],20 mm
same,Results,[4],Susceptible
same,diameter in mm,[4],20 mm
same,MIC,[5],16 µg/mL
same,MIC,[6],8 µg/mL
same,MIC,[7],4 µg/mL
same,CA-SFM Interpretation,[8],Susceptible
same,CLSI Interpretation,[8],Susceptible
same,EUCAST Interpretation,[8],Susceptible
same,MIC,[8]; Table H1,≦0.5
same,Results,[8]; Table H1,Susceptible
same,MIC mg/L,[8]; Table H2,≦0.5 mg/L
same,Diameter,[9]; PaR5,23 mm
same,Results,[9]; PaR5,Susceptible
same,diameter in mm,[9],23 mm
same,CA-SFM Interpretation,"[9]; disk diffusion, PaR5",Susceptible
same,CLSI Interpretation,"[9]; disk diffusion, PaR5",Susceptible
NCC[C@H](O)C(=O)N[C@@H]1C[C@H](N)[C@@H](O[C@H]2O[C@H](CN)[C@@H](O)[C@H](O)[C@H]2O)[C@H](O)[C@H]1O[C@H]1O[C@H](CO)[C@@H](O)[C@H](N)[C@H]1O [Amikacin],MIC,[1]; [24],1 µg/mL
same,Diameter,[2],19 mm
same,Results,[2],Susceptible
same,CA-SFM Interpretation,[3],Susceptible
same,CLSI Interpretation,[3]; Cd CLSI 2011,Susceptible
same,EUCAST Interpretation,[3]; Cd EUCAST 2011,Susceptible
same,Diameter,[3],17 mm
same,Results,[3],Susceptible
same,diameter in mm,[3],17 mm
same,CA-SFM Interpretation,[4],Susceptible
same,CLSI Interpretation,[4],Susceptible
same,EUCAST Interpretation,[4]; Cd EUCAST 2011,Susceptible
same,Diameter,[4],22 mm
same,Results,[4],Susceptible
same,diameter in mm,[4],22 mm
same,MIC,[5]; [24],0.5 µg/mL
same,MIC,[10],1 µg/mL
same,MIC,[6]; [24],1 µg/mL
same,MIC,[11],0.25 µg/mL
same,MIC,[12],1 µg/mL
same,MIC,[13],0.5 µg/mL
same,MIC,[14],0.25 µg/mL
same,MIC,[7]; [25],0.5 µg/mL
same,CA-SFM Interpretation,[8],Susceptible
same,CLSI Interpretation,[8],Susceptible
same,EUCAST Interpretation,[8],Susceptible
same,MIC,[8]; [26],4 µg/mL
same,MIC,[8]; Table H1,4 µg/mL
same,Results,[8]; Table H1,Susceptible
same,CA-SFM Interpretation,"[15]; EcR1, MIC against Cc CA-SFM 2011",Susceptible
same,CLSI Interpretation,"[15]; EcR1, MIC against Cc CLSI 2011",Susceptible
same,EUCAST Interpretation,"[15]; EcR1, MIC against Cc EUCAST 2011",Susceptible
same,Results,"[15]; EcR1, interpretation of the MIC, Table A1",Susceptible
same,MIC,[15]; [27],≤ 2 mg/L
same,MIC,[15]; [28],≤ 2 mg/L
same,Diameter,[9]; PaR5,27 mm
same,Results,[9]; PaR5,Susceptible
same,diameter in mm,[9],27 mm
same,CA-SFM Interpretation,"[9]; disk diffusion, PaR5",Susceptible
same,CLSI Interpretation,"[9]; disk diffusion, PaR5",Susceptible
same,EUCAST Interpretation,"[9]; disk diffusion, PaR5, versus critical diameter EUCAST 2011, for ** antibiotics the disk load differs and the EUCAST interpretation is not applicable",Susceptible
C[C@@H](O)[C@H]1C(=O)N2C(C(=O)O)=C(SCCN=CN)C[C@H]12 [Imipenem],MIC,[1]; [24],2 µg/mL
same,MIC,[16],0.25 µg/mL
same,MIC,[17],2 µg/mL
same,MIC,[18],0.25 µg/mL
same,Diameter,[3],27 mm
same,diameter in mm,[3],27 mm
same,Diameter,[4],27 mm
same,diameter in mm,[4],27 mm
same,MIC,[5]; [24],2 µg/mL
same,MIC,[10],0.015 µg/mL
same,MIC,[6]; [24],32 µg/mL
same,MIC,[11],0.125 µg/mL
same,MIC,[12],0.125 µg/mL
same,MIC,[13],0.125 µg/mL
same,MIC,[14],0.125 µg/mL
same,MIC,[7]; [25],2 µg/mL
same,MIC,[8]; [26],≥ 16 µg/mL
same,MIC,[8]; Table H1,≧16
same,MIC,"[19]; EcR2, VITEK 1, Table B1",≤ 4 µg/mL
same,MIC,"[19]; EcR2, Table B2, MIC",≤ 0.5 µg/mL
same,MIC,[15]; [27],≤ 0.5 mg/L
same,MIC,[15]; [28],≤ 1 mg/L
same,Diameter,[9]; PaR5,25 mm
same,diameter in mm,[9],25 mm
CO[C@H]1/C=C/O[C@@]2(C)Oc3c(C)c(O)c4c(O)c(c(/C=N/N5CCN(C)CC5)c(O)c4c3C2=O)NC(=O)/C(C)=C\C=C\[C@H](C)[C@H](O)[C@@H](C)[C@@H](O)[C@@H](C)[C@H](OC(C)=O)[C@@H]1C [Rifampicin],MIC,[1]; [24],64 µg/mL
same,MIC,[20]; Table F1,≤ 1 µg/mL
same,MIC,"[20]; Table F2, MIC",≤ 1 µg/mL
same,MIC mg/L (diameter in mm),[2],16 mm
same,Diameter,[2],16 mm
same,Diameter,[3],15 mm
same,diameter in mm,[3],15 mm
same,Diameter,[4],25 mm
same,diameter in mm,[4],25 mm
same,Diameter,[21],30 mm
same,MIC,[5]; [24],16 µg/mL
same,MIC,[6]; [24],32 µg/mL
same,MIC,[11],4 µg/mL
same,MIC,[12],4 µg/mL
same,MIC,[13],2 µg/mL
same,MIC,[14],4 µg/mL
same,MIC,[7]; [25],64 µg/mL
same,MIC mg/L,[22]; Table D2,≦0.5 mg/L
same,MIC,"[22]; Staphylococcus aureus, Table D1, read-out: MIC",≤ 0.5 µg/mL
same,Diameter,[9]; PaR5,13 mm
same,diameter in mm,[9],13 mm
same,Diameter,[23]; Table E1,31 mm
same,diameter in mm,[23]; Table E2,31 mm
